Assay results from DBAASP.
Converted amounts (≈) assume the structure as drawn.

Key:
Assay in all cases: ≥ marks a high value that may be exact or a test limit, other limits are often not marked, values filed in µg/mL are converted to µM
[1] = test system: Escherichia coli ATCC 25922
[2] = test system: Klebsiella pneumoniae ATCC 700603
[3] = test system: Pseudomonas aeruginosa ATCC 27853
[4] = test system: Staphylococcus aureus ATCC 29213
[5] = test system: Staphylococcus aureus ATCC 33591
[6] = test system: Staphylococcus aureus ATCC 700699
[7] = test system: Acinetobacter baumannii ATCC BAA-1605
[8] = test system: Enterococcus faecium ATCC 700221
[9] = test system: Bacillus subtilis ATCC 62037
[10] = test system: Candida albicans ATCC 10231
[11] = test system: Escherichia coli ATCC 27325
[12] = test system: Pseudomonas putida ATCC 17426
[13] = test system: Saccharomyces cerevisiae ATCC 44774
[14] = test system: Salmonella enterica subsp. enterica serovar Enteritidis ATCC 13076
[15] = test system: Staphylococcus aureus ATCC 15752
[16] = test system: Streptococcus mutans ATCC 25175
[17] = test system: Cryptococcus neoformans ATCC 34881

MIC [1] [µM]	MIC [2] [µM]	MIC [3] [µM]	MIC [4] [µM]	MIC [5] [µM]	MIC [6] [µM]	MIC [7] [µM]	MIC [8] [µM]	MIC [9] [µM]	MIC [10] [µM]	MIC [11] [µM]	MIC [12] [µM]	MIC [13] [µM]	MIC [14] [µM]	MIC [15] [µM]	MIC [16] [µM]	MIC [17] [µM]	Structure (SMILES)
								0.717 (≈ 2 µg/mL)	0.179 (≈ 0.5 µg/mL)	1.43 (≈ 4 µg/mL)	1.43 (≈ 4 µg/mL)	0.179 (≈ 0.5 µg/mL)	0.717 (≈ 2 µg/mL)	0.717 (≈ 2 µg/mL)	0.717 (≈ 2 µg/mL)		CC[C@H](C)[C@H](NC(=O)[C@@H]1CCCN1C(=O)[C@H](Cc1c[nH]c2ccccc12)NC(=O)[C@H](CCC(N)=O)NC(=O)[C@H](CCCN=C(N)N)NC(=O)[C@@H](NC(=O)[C@@H](NC(=O)[C@@H](N)CCCN=C(N)N)C(C)C)C(C)C)C(=O)NCC(=O)N[C@@H](CCCN=C(N)N)C(=O)N[C@H](C(=O)N[C@H](C(=O)N[C@@H](CCCN=C(N)N)C(=O)N[C@@H](CCCN=C(N)N)C(=O)N[C@H](C(=O)N[C@H](C(=O)N[C@@H](CCCN=C(N)N)C(=O)N[C@@H](CCCN=C(N)N)C(=O)N[C@H](C(=O)N[C@H](C(=O)N[C@@H](CCCN=C(N)N)C(=O)N[C@@H](Cc1ccccc1)C(=O)O)C(C)C)C(C)C)C(C)C)C(C)C)C(C)C)C(C)C [RVVRQWPIGRVVRRVVRRVVRF]
								2.04 (≈ 4 µg/mL)	16.3 (≈ 32 µg/mL)	4.08 (≈ 8 µg/mL)	8.17 (≈ 16 µg/mL)	8.17 (≈ 16 µg/mL)	16.3 (≈ 32 µg/mL)	8.17 (≈ 16 µg/mL)	16.3 (≈ 32 µg/mL)	2.04 (≈ 4 µg/mL)	CC(C)[C@H](NC(=O)[C@H](CCCCN)NC(=O)CNC(=O)CNC(=O)[C@H](CCC(N)=O)NC(=O)[C@H](CCCCN)NC(=O)CNC(=O)[C@H](CCCN=C(N)N)NC(=O)CNC(=O)[C@@H](N)CO)C(=O)N[C@@H](CCCN=C(N)N)C(=O)N[C@@H](C)C(=O)N[C@@H](CCCCN)C(=O)N[C@@H](C)C(=O)N[C@@H](CCCCN)C(=O)N[C@H](C(=O)N[C@@H](CCCN=C(N)N)C(=O)N[C@@H](CO)C(=O)N[C@@H](CO)C(=O)O)[C@@H](C)O [SGRGKQGGKVRAKAKTRSS]

Continued, compound first:

Structure (SMILES)	MIC [1] [µM]	MIC [2] [µM]	MIC [3] [µM]	MIC [4] [µM]	MIC [5] [µM]	MIC [6] [µM]	MIC [7] [µM]	MIC [8] [µM]	MIC [9] [µM]	MIC [10] [µM]	MIC [11] [µM]	MIC [12] [µM]	MIC [13] [µM]	MIC [14] [µM]	MIC [15] [µM]	MIC [16] [µM]	MIC [17] [µM]
CC[C@H](C)[C@H](NC(=O)[C@H](CC(=O)O)NC(=O)[C@H](CCCCN)NC(=O)[C@H](C)NC(=O)[C@H](C)NC(=O)CNC(=O)[C@H](CCCCN)NC(=O)[C@H](CC(C)C)NC(=O)[C@@H](NC(=O)[C@H](CC(=O)O)NC(=O)[C@H](C)NC(=O)[C@@H](NC(=O)CN)C(C)C)[C@@H](C)CC)C(=O)N[C@@H](C)C(=O)NCC(=O)N[C@@H](Cc1cnc[nH]1)C(=O)N[C@@H](CC(C)C)C(=O)N[C@@H](C)C(=O)N[C@@H](CO)C(=O)N[C@@H](CCCCN)C(=O)N[C@H](C(=O)N[C@@H](CCSC)C(=O)N[C@@H](CC(N)=O)C(=O)N[C@@H](CCCCN)C(=O)N[C@@H](CC(C)C)C(N)=O)C(C)C [GVADILKGAAKDIAGHLASKVMNKL]	> 100	100 (≈ 252 µg/mL)	> 100	> 100	≥ 100	≥ 100											
CC[C@H](C)[C@H](NC(=O)[C@H](CC(=O)O)NC(=O)[C@H](CCCCN)NC(=O)[C@H](C)NC(=O)[C@H](C)NC(=O)CNC(=O)[C@H](CCCCN)NC(=O)[C@H](CC(C)C)NC(=O)[C@@H](NC(=O)[C@H](CC(=O)O)NC(=O)[C@@H](NC(=O)[C@@H](NC(=O)CN)C(C)C)C(C)C)[C@@H](C)CC)C(=O)N[C@@H](C)C(=O)NCC(=O)N[C@@H](C)C(=O)N[C@@H](CC(C)C)C(=O)N[C@@H](C)C(=O)N[C@@H](CO)C(=O)N[C@@H](CCCCN)C(=O)N[C@H](C(=O)N[C@@H](CCSC)C(=O)N[C@@H](CC(N)=O)C(=O)N[C@@H](CCCCN)C(=O)N[C@@H](CC(C)C)C(N)=O)C(C)C [GVVDILKGAAKDIAGALASKVMNKL]	100 (≈ 248 µg/mL)	100 (≈ 248 µg/mL)	> 100	> 100	≥ 100	≥ 100											
CC[C@H](C)[C@H](NC(=O)[C@H](CCCCN)NC(=O)[C@H](CCCCN)NC(=O)[C@H](Cc1ccccc1)NC(=O)[C@H](CC(C)C)NC(=O)[C@H](CCCN=C(N)N)NC(=O)[C@@H](N)CCCN=C(N)N)C(=O)N[C@@H](CC(C)C)C(=O)N[C@@H](CCCCN)C(=O)N[C@@H](Cc1ccc(O)cc1)C(=O)N[C@@H](CC(C)C)C(N)=O [RRLFKKILKYL]	23.3 (≈ 34.5 µg/mL)	11.5 (≈ 17 µg/mL)	11.5 (≈ 17 µg/mL)		23.3 (≈ 34.5 µg/mL)		3.04 (≈ 4.5 µg/mL)	11.5 (≈ 17 µg/mL)									
